In brackets after ≈: the same amount, converted by molar mass. Several values for one entry are separate records, joined by “and”; a condition that tells them apart may be missing. Identical values can stand only once.
How the values were obtained:
[1] = Fecal (stool) pharmacokinetics, multiple-ascending-dose phase 1 study; format: in vivo, human; settings: for Cstool,ss (concentration in stool) / fe,stool (fe,feces,ss, fraction of dose excreted unchanged in feces over 24 h): day 10, median (minimum, maximum); for fe,stool (fe,feces,ss, fraction of dose excreted unchanged in feces over 24 h): % in Table S4
Experimental: PK method development, validation, and sample testing for plasma, feces, and urine were performed at KCAS, LLC (Shawnee, KS). Plasma, urine, and fecal concentrations of CRS3123 were determined by means of validated, sensitive, and specific high-performance liquid chromatography/tandem mass spectrometric (HPLC-MS/MS) assays. The lower limits of quantification of CRS3123 in plasma, feces, and urine were 10.0 ng/ml, 60.0 ng/g, and 100.0 ng/ml, respectively. The validated urine PK assay measured total free CSR3123. Since the majority of urinary CRS3123 was excreted as glucuronide conjugates ([32]), an enzymatic cleavage step using glucuronidase was added to the process to convert the glucuronide conjugates to free CRS3123 for the urine analysis.
A selective, accurate, and reproducible analytical method using LC-MS/MS for the quantitation of CRS3123 in human fecal homogenate was linear over a range of 10.0 to 2000 ng/ml (fecal homogenate) or 60.0 to 12,000 ng/g (fecal material). Since 11 fecal samples collected on day 10 exceeded the upper limit, this method was amended by validating it for an extended range of 50.0 to 3,000 μg/ml (fecal homogenate) or […] (fecal material).
(iii) Fecal PK. Twenty-four-hour fecal collection was initiated for all subjects following dose 1 and dose 19 of study drug for measurement of CRS3123 concentrations in feces. A listing of individual PK fecal sample collection start and stop dates/times, fecal weight excreted for each planned collection, CRS3123 concentration in each fecal collection, and amount of CRS3123 excreted in each fecal collection was provided for each fecal collection for each treatment. The bioanalytical method was amended to allow for reanalysis of samples originally outside the linear range.
The following parameters were calculated from the fecal data: amount of unchanged drug excreted in feces (in nanograms) following doses 1 and 2 (Ae,feces) or doses 19 and 20 (Ae,feces,ss) calculated as fecal concentration × fecal weight (in the case of multiple fecal samples, Ae,feces and Ae,feces,ss were determined as the sum of the amount calculated in each fecal sample collected during the 24-h collection period), and fraction of dose excreted unchanged in feces (fe,feces,ss) over a 24-h interval after multiple dosing (expressed as a percentage), calculated as Ae,feces,ss divided by dose 19 plus dose 20.
Due to the 12-h dosing interval utilized in this study, fe,feces,ss was calculated only after multiple dosing on day 10, when CRS3123 would be expected to be at or near steady state. […] A subject listing of individual fecal PK parameters for each treatment was provided for day 1 and for day 10.

[2] = tested on: type 1 methionyl-tRNA synthetase (MetRS); parameters: method as in PMID 19258353, PMID 19251726; settings: cited from earlier work
[3] = tested on: Bacterial strains that express type 2 MetRS; parameters: method as in PMID 19240076; settings: most Gram-negative bacteria, Bacteroides, bifidobacteria, actinobacteria, lactobacilli; cited from earlier work
[4] = parameters: method as in PMID 28584140; settings: cited from earlier work
C. difficile = tested on: C. difficile; parameters: method as in PMID 19258353; settings: cited from earlier work

## O=c1cc(NCCCN[C@@H]2CCOc3c(Br)cc(Br)cc32)[nH]c2ccsc12 [CRS3123]
[1]; 200 mg Q12h oral
  Cstool,ss (concentration in stool): 2,115 μg/g and 2,115 (966, 4,430) μg/g
  fe,stool (fe,feces,ss, fraction of dose excreted unchanged in feces over 24 h): 24.9% and 24.9 (1.9, 68.8) %
[1]; 400 mg Q12h oral
  Cstool,ss (concentration in stool): 5,390 μg/g and 5,390 (2,920, 8,700) μg/g
  fe,stool (fe,feces,ss, fraction of dose excreted unchanged in feces over 24 h): 52.0%
[1]; 600 mg Q12h oral
  Cstool,ss (concentration in stool): 8,280 μg/g and 8,280 (2,200, 14,000) μg/g
  fe,stool (fe,feces,ss, fraction of dose excreted unchanged in feces over 24 h): 43.1% and 43.1 (11.0, 125.8) %
[1]; all three doses tested
  concentrations in feces: above 1,000 μg/g
[1]; human, in vivo
  fecal concentrations relative to MIC90: substantially above the MIC90 value
[2]
  inhibition of type 1 MetRS: potently inhibits
[3]
  susceptibility of strains expressing type 2 MetRS: virtually no susceptibility
[4]
  share of oral dose metabolized into glucuronide conjugates detectable in urine: a small fraction
[4]; preclinical testing and SAD study 100 mg to 1,200 mg
  systemic absorption following oral dosing: low systemic absorption
[4]; single oral doses 100 mg to 1,200 mg
  safety and tolerability: safe and well tolerated
C. difficile
  MIC90: 1 mg/L (≈ 1.95 µM)

From publication PMC7187627 (Antimicrobial Agents and Chemotherapy, 2019)
